The text below walks through data of US9452986B2, “6-heteroaryloxy- or 6-aryloxy-quinoline-2-carboxamides and method of use” (AbbVie Inc., priority 2014, dated 2016).

Some results are limits rather than exact numbers.

Sequence of recombinant human Nav1.7 (Q15858 whole entry): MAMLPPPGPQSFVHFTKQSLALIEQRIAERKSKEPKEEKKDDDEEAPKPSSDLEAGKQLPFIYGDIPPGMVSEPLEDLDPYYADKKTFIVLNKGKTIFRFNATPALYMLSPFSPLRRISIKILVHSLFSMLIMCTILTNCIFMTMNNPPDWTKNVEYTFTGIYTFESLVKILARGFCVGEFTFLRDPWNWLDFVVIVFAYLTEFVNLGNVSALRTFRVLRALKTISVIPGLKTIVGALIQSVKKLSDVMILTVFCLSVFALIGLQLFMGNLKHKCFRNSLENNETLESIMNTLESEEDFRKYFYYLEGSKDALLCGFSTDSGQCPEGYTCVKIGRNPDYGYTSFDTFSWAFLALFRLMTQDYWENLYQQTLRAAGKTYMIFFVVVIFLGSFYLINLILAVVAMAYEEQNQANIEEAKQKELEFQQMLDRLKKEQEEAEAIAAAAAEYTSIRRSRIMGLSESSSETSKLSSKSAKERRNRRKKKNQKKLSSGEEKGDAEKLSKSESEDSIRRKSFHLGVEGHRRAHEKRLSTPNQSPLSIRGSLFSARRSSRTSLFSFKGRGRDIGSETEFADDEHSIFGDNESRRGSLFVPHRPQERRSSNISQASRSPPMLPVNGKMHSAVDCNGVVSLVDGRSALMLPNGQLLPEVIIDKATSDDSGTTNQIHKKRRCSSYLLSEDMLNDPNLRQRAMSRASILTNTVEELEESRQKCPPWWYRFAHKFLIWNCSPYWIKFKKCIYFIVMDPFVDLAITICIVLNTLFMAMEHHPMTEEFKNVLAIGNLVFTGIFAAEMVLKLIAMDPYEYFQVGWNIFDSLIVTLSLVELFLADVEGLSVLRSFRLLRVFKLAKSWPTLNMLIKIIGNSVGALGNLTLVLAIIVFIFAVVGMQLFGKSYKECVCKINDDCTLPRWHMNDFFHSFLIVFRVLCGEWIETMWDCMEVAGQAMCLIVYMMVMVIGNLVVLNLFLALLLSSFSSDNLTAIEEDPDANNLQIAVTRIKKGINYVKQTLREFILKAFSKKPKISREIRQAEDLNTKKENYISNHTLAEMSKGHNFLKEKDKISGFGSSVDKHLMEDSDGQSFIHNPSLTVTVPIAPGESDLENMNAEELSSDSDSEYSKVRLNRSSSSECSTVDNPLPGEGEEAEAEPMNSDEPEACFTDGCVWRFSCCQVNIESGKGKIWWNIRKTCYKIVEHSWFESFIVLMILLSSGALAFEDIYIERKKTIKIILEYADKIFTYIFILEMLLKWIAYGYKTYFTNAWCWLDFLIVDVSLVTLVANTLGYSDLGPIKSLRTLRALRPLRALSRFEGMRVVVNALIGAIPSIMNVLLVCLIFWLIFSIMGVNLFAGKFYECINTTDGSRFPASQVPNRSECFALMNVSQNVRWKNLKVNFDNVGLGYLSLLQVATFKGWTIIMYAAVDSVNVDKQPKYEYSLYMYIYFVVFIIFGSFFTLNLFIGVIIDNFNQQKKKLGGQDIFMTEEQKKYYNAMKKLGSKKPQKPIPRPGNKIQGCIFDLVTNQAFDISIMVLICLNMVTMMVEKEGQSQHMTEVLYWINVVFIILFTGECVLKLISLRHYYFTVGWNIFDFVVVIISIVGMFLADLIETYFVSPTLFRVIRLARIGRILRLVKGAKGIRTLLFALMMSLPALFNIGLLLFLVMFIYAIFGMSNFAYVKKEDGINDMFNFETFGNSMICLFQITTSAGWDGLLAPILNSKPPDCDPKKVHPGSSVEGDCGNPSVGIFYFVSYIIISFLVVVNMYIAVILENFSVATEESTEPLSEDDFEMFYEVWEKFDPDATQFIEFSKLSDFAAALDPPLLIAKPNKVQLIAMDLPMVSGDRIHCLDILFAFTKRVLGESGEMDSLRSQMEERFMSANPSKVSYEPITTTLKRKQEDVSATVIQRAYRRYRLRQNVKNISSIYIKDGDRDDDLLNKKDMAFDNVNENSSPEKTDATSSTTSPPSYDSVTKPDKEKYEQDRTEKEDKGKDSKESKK

One experiment has as its target recombinant human Nav1.7 (Homo sapiens (Human), UniProt Q15858). Nature of the experiment: FRET-based membrane potential assay, recombinant human sodium channel Nav1.7. The class given is cell-based. Conditions: HEK293 cells stably expressing recombinant human Nav1.7; veratridine + scorpion venom depolarization; read-out: FRET-Membrane Potential Nav1.7 IC50. In a few lines: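 Channel activation used veratridine at its EC80, set by a dilution curve each experiment, together with Leiurus scorpion venom, added 3 min after compound. Membrane-potential ratio signals from FLIPR Tetra in HEPES-buffered HBSS were fitted to a four-parameter Hill equation for percent inhibition and IC50.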
With `C[C@@H]1CN2CC(F)(F)C[C@@H]2CN1C(=O)c1ccc2cc(Oc3ccc(C(F)(F)F)cn3)ccc2n1` [Example 358, [(3R,8aR)-7,7-difluoro-3-methylhexahydropyrrolo[1,2-a]pyrazin-2(1H)-yl](6-{[5-(trifluoromethyl)pyridin-2-yl]oxy}quinolin-2-yl)methanone], the IC50 was determined as 1.31 µM.
For `O=C(NCC1COCCN1Cc1ccccc1)c1ccc2cc(Oc3ccc(C(F)(F)F)cn3)ccc2n1` (centres unmarked) [Example 361, N-[(4-benzylmorpholin-3-yl)methyl]-6-{[5-(trifluoromethyl)pyridin-2-yl]oxy}quinoline-2-carboxamide], the IC50 is 2.88 µM.
On the same count and under the same terms, for `O=C(NCC1(O)CCOCC1)c1ccc2cc(Oc3ccc(C(F)(F)F)cn3)ccc2n1` [Example 362, N-[(4-hydroxytetrahydro-2H-pyran-4-yl)methyl]-6-{[5-(trifluoromethyl)pyridin-2-yl]oxy}quinoline-2-carboxamide] the value was 1 µM; for `O=C(NC[C@@H]1CCCN1)c1ccc2cc(Oc3ccc(C(F)(F)F)cn3)ccc2n1` [Example 363, N-[(2S)-pyrrolidin-2-ylmethyl]-6-{[5-(trifluoromethyl)pyridin-2-yl]oxy}quinoline-2-carboxamide], 1.19 µM.
As to `CC1(C)CN(CCNC(=O)c2ccc3cc(Oc4ccc(C(F)(F)F)cn4)ccc3n2)C1` [Example 364, N-[2-(3,3-dimethylazetidin-1-yl)ethyl]-6-{[5-(trifluoromethyl)pyridin-2-yl]oxy}quinoline-2-carboxamide], the IC50 turned out to be 0.37 µM.
The same measure, in the same setting: for `O=C(NCCN1CCSCC1)c1ccc2cc(Oc3ccc(C(F)(F)F)cn3)ccc2n1` [Example 365, N-[2-(thiomorpholin-4-yl)ethyl]-6-{[5-(trifluoromethyl)pyridin-2-yl]oxy}quinoline-2-carboxamide] the value was 0.356 µM; for `C=CCN(C)C(=O)c1ccc2cc(Oc3ccc(C(F)(F)F)cn3)ccc2n1` [Example 366, N-allyl-N-methyl-6-{[5-(trifluoromethyl)pyridin-2-yl]oxy}quinoline-2-carboxamide], 3.18 µM.
Still for that read-out and setting: for `N#CC1CN(C(=O)c2ccc3cc(Oc4ccc(C(F)(F)F)cn4)ccc3n2)C1` [Example 367, 1-[(6-{[5-(trifluoromethyl)pyridin-2-yl]oxy}quinolin-2-yl)carbonyl]azetidine-3-carbonitrile] the value was 2.53 µM.
The same measure, in the same setting: with `O=C(NCC1(O)CC1)c1ccc2cc(Oc3ccc(C(F)(F)F)cn3)ccc2n1` [Example 369, N-[(1-hydroxycyclopropyl)methyl]-6-{[5-(trifluoromethyl)pyridin-2-yl]oxy}quinoline-2-carboxamide] the figure was 15.2 µM; with `O=C(NC1COCC1O)c1ccc2cc(Oc3ccc(C(F)(F)F)cn3)ccc2n1` (centres unmarked) [Example 371, N-(4-hydroxytetrahydrofuran-3-yl)-6-{[5-(trifluoromethyl)pyridin-2-yl]oxy}quinoline-2-carboxamide], 1.46 µM; with `N#Cc1cnc(Oc2ccc3nc(C(=O)N4CCNCC4)ccc3c2)cn1` [Example 372, 5-{[2-(piperazin-1-ylcarbonyl)quinolin-6-yl]oxy}pyrazine-2-carbonitrile], > 20 µM.
Take `O=C1CCN(C(=O)c2ccc3cc(Oc4ccc(C(F)(F)F)cn4)ccc3n2)CC1` [Example 375, 1-[(6-{[5-(trifluoromethyl)pyridin-2-yl]oxy}quinolin-2-yl)carbonyl]piperidin-4-one]: the IC50 was 13.2 µM.
Still for that read-out and setting: for `O=C(c1ccc2cc(Oc3ccc(C(F)(F)F)cn3)ccc2n1)N(C1CCOCC1)C1CCOCC1` [Example 376, N,N-di(tetrahydro-2H-pyran-4-yl)-6-{[5-(trifluoromethyl)pyridin-2-yl]oxy}quinoline-2-carboxamide] the value was 3.06 µM; for `O=C(c1ccc2cc(Oc3ccc(C(F)(F)F)cn3)ccc2n1)N1CCC(N2C[C@@H]3C[C@H]2CO3)CC1` [Example 377, {4-[(1S,4S)-2-oxa-5-azabicyclo[2.2.1]hept-5-yl]piperidin-1-yl}(6-{[5-(trifluoromethyl)pyridin-2-yl]oxy}quinolin-2-yl)methanone], 3.32 µM.
Consider `O=C(c1ccc2cc(Oc3ccc(C(F)(F)F)cn3)ccc2n1)N1CCC(N2C[C@H]3C[C@@H]2CO3)CC1` [Example 378, {4-[(1R,4R)-2-oxa-5-azabicyclo[2.2.1]hept-5-yl]piperidin-1-yl}(6-{[5-(trifluoromethyl)pyridin-2-yl]oxy}quinolin-2-yl)methanone], for which the IC50 came out at 2.23 µM.
For the compound `COCCN(CCOC)C(=O)c1ccc2cc(Oc3ccc(C(F)(F)F)cn3)ccc2n1` [Example 379, N,N-bis(2-methoxyethyl)-6-{[5-(trifluoromethyl)pyridin-2-yl]oxy}quinoline-2-carboxamide], the IC50 was found to be 3.39 µM.
Take `O=C(NC1(CO)CC1)c1ccc2cc(Oc3ccc(C(F)(F)F)cn3)ccc2n1` [Example 380, N-[1-(hydroxymethyl)cyclopropyl]-6-{[5-(trifluoromethyl)pyridin-2-yl]oxy}quinoline-2-carboxamide]: the IC50 came to 3 µM.
On the same count and under the same terms, with `O=C(c1ccc2cc(Oc3ccc(C(F)(F)F)cn3)ccc2n1)N1CCN(S(=O)(=O)C2CCOC2)CC1` (centres unmarked) [Example 381, [4-(tetrahydrofuran-3-ylsulfonyl)piperazin-1-yl](6-{[5-(trifluoromethyl)pyridin-2-yl]oxy}quinolin-2-yl)methanone] the figure was 3.41 µM.
Turning to `COC(=O)CS(=O)(=O)N1CCN(C(=O)c2ccc3cc(Oc4ccc(C(F)(F)F)cn4)ccc3n2)CC1` [Example 382, methyl ({4-[(6-{[5-(trifluoromethyl)pyridin-2-yl]oxy}quinolin-2-yl)carbonyl]piperazin-1-yl}sulfonyl)acetate], the IC50 is 1.82 µM.
On to `O=C(c1ccc2cc(Oc3ccc(C(F)(F)F)cn3)ccc2n1)N1CCN(S(=O)(=O)C2CCOCC2)CC1` [Example 383, [4-(tetrahydro-2H-pyran-4-ylsulfonyl)piperazin-1-yl](6-{[5-(trifluoromethyl)pyridin-2-yl]oxy}quinolin-2-yl)methanone], for which the IC50 was > 20 µM.
On the same count and under the same terms, with `COCCn1cc(S(=O)(=O)N2CCN(C(=O)c3ccc4cc(Oc5ccc(C(F)(F)F)cn5)ccc4n3)CC2)cn1` [Example 384, (4-{[1-(2-methoxyethyl)-1H-pyrazol-4-yl]sulfonyl}piperazin-1-yl)(6-{[5-(trifluoromethyl)pyridin-2-yl]oxy}quinolin-2-yl)methanone] the figure was 1.93 µM.
Turning to `O=C(c1ccc2cc(Oc3ccc(C(F)(F)F)cn3)ccc2n1)N1CCN(S(=O)(=O)CC2CCOC2)CC1` (centres unmarked) [Example 385, {4-[(tetrahydrofuran-3-ylmethyl)sulfonyl]piperazin-1-yl}(6-{[5-(trifluoromethyl)pyridin-2-yl]oxy}quinolin-2-yl)methanone], the IC50 came out at 2.33 µM.
Turning to `O=C(c1ccc2cc(Oc3ccc(C(F)(F)F)cn3)ccc2n1)N1CCN(S(=O)(=O)C2CCS(=O)(=O)C2)CC1` (centres unmarked) [Example 386, {4[(1,1-dioxidotetrahydrothiophen-3-yl)sulfonyl]piperazin-1-yl}(6-{[5-(trifluoromethyl)pyridin-2-yl]oxy}quinolin-2-yl)methanone], the IC50 is > 20 µM.
In the case of `Cn1cc(S(=O)(=O)N2CCN(C(=O)c3ccc4cc(Oc5ccc(C(F)(F)F)cn5)ccc4n3)CC2)cn1` [Example 387, {4-[(1-methyl-1H-pyrazol-4-yl)sulfonyl]piperazin-1-yl}(6-{[5-(trifluoromethyl)pyridin-2-yl]oxy}quinolin-2-yl)methanone], the IC50 was 2.48 µM.
The same measure, in the same setting: with `CC(=O)Nc1nc(C)c(S(=O)(=O)N2CCN(C(=O)c3ccc4cc(Oc5ccc(C(F)(F)F)cn5)ccc4n3)CC2)s1` [Example 388, N-[4-methyl-5-({4-[(6-{[5-(trifluoromethyl)pyridin-2-yl]oxy}quinolin-2-yl)carbonyl]piperazin-1-yl}sulfonyl)-1,3-thiazol-2-yl]acetamide] the figure was > 20 µM; with `CC(=O)Nc1ncc(S(=O)(=O)N2CCN(C(=O)c3ccc4cc(Oc5ccc(C(F)(F)F)cn5)ccc4n3)CC2)s1` [Example 389, N-[5-({4-[(6-{[5-(trifluoromethyl)pyridin-2-yl]oxy}quinolin-2-yl)carbonyl]piperazin-1-yl}sulfonyl)-1,3-thiazol-2-yl]acetamide], 9.22 µM; with `Cc1c(S(=O)(=O)N2CCN(C(=O)c3ccc4cc(Oc5ccc(C(F)(F)F)cn5)ccc4n3)CC2)cnn1C` [Example 390, {4-[(1,5-dimethyl-1H-pyrazol-4-yl)sulfonyl]piperazin-1-yl}(6-{[5-(trifluoromethyl)pyridin-2-yl]oxy}quinolin-2-yl)methanone], 2.34 µM.
For the compound `O=C(NC[C@@H]1CCCO1)c1ccc2cc(Oc3ccc(C(F)(F)F)cn3)ccc2n1` [Example 394, N-[(2S)-tetrahydrofuran-2-ylmethyl]-6-{[5-(trifluoromethyl)pyridin-2-yl]oxy}quinoline-2-carboxamide], the IC50 was 0.443 µM.

Still in this experiment, the particulars now being: read-out: FRET-Membrane Potential Nav1.7 IC50.
Turning to `O=C(c1ccc2cc(Oc3ccc(C(F)(F)F)cn3)ccc2n1)N1CCN2C[C@@H](F)C[C@H]2C1` [Example 359, [(7S,8aS)-7-fluorohexahydropyrrolo[1,2-a]pyrazin-2(1H)-yl](6-{[5-(trifluoromethyl)pyridin-2-yl]oxy}quinolin-2-yl)methanone], the IC50 stood at 4.71 µM.
On the same count and under the same terms, for `O=C(c1ccc2cc(Oc3ccc(C(F)(F)F)cn3)ccc2n1)N1CCc2[nH]cnc2C1` [Example 360, 1,4,6,7-tetrahydro-5H-imidazo[4,5-c]pyridin-5-yl(6-{[5-(trifluoromethyl)pyridin-2-yl]oxy}quinolin-2-yl)methanone] the value was 1.09 µM.
Same read-out and setting: with `O=C1CN(C(=O)c2ccc3cc(Oc4ccc(C(F)(F)F)cn4)ccc3n2)C1` [Example 370, 1-[(6-{[5-(trifluoromethyl)pyridin-2-yl]oxy}quinolin-2-yl)carbonyl]azetidin-3-one] the figure was 3.39 µM; with `COCCN(C)C(=O)c1ccc2cc(Oc3ccc(C(F)(F)F)cn3)ccc2n1` [Example 392, N-(2-methoxyethyl)-N-methyl-6-{[5-(trifluoromethyl)pyridin-2-yl]oxy}quinoline-2-carboxamide], 7.96 µM.
